Source: PMC8116649 (Frontiers in Pharmacology, 2021)
Where two headings read alike, the source gives them in different places.

Tests used:
[1] = cited from earlier work
[2] = target: ethoxyresorufin-O-deethylase; design: method as in Cai et al., 1993; conditions: mice liver microsomes; ref Cai et al., 1993; cited from earlier work
CYP1A2 [3] = target: T1, CYP1A2 (Homo sapiens, UniProt P05177); test: Caffeine-N-demethylase assay with 14C-caffeine in human liver microsomes, IC50 determination
T1 sequence (P05177 1-516): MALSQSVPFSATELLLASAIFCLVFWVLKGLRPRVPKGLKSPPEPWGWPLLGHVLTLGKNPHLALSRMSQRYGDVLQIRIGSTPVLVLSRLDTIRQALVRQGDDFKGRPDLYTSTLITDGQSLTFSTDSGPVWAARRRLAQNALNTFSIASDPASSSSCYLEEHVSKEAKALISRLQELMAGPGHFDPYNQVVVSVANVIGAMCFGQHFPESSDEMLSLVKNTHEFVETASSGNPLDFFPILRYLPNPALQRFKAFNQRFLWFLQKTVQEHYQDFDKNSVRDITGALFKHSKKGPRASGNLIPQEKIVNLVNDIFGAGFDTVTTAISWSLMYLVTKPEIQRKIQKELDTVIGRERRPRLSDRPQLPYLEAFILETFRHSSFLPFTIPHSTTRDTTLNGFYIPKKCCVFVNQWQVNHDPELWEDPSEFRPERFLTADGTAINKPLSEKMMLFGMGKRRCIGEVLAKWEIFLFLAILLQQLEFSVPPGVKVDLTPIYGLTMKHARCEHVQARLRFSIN
Experimental: Incubation was conducted at 37°C in a metabolic incubator with a 60 cycles/min shaking rate. At the conclusion of 10 min incubation, the reaction was terminated by the addition of 10% TCA solution (50.0 µl). The incubation mixture was centrifuged at 4,000×g. An aliquot (300.0 µl) of the supernatant was applied to a 3.0 ml Sigma-Aldrich Superclean ENVI-Carbon solid phase extraction (SPE) tube (0.25 g, 80–100 mesh). […] The eluant was collected into a scintillation vial. After the addition of 15.0 ml scintillation cocktail, the radioactivity in the vial was counted in a liquid scintillation counter. The results were expressed as residual counts of the control incubation.
CYP 1A2 activity inhibition was plotted against log furanocoumarin concentration after normalizing the inhibition data from 0–100%. The resulting inhibition-concentration curves were fitted separately to a four-parameter logistic function to determine the IC50 values. Curve fitting was performed using the GraphPad Prism version 5.04 (GraphPad Software, San Diego, CA). The IC50 represented the concentration of the furanocoumarin chemical to evoke a half maximal inhibition of the CYP 1A2 activity.

CYP1A2 [4] = target: T1, CYP1A2; test: Pre-incubation time- and furanocoumarin concentration-dependent inhibition of caffeine metabolism in HLMs; conditions: for KI: HLMs 1.2 mg/ml, pre-incubation with NADPH, CYP 1A2 inactivation
Experimental: (§1) In the pre-incubation step, HLMs (1.2 mg/ml) were pre-incubated with different furanocoumarin concentrations in the presence of NADPH for various time periods at 37°C. […] The final incubation volume was 320.0 µl. At the conclusion of a 10 min incubation, the reaction was stopped by the addition of a 10% TCA solution. The incubation mixture was extracted by a SPE tube, and the radioactivity in the eluant was counted in a liquid scintillation counter as described earlier.
(§2) The observed in vitro rate constant (kobs) was calculated using the slopes of linear regression analyses from natural logarithm (Ln) percentage remaining activity against pre-incubation time plots. The maximum inactivation rate constant (kinact) was calculated using the non-linear regression analyses of plots of the inactivator concentrations against kobs values. […] The plotting was performed using the GraphPad Prism version 5.04 (GraphPad Software, San Diego, CA).

[5] = target: 7-ethoxycoumarin deethylase; design: method as in Tinel et al., 1987; conditions: HLMs; ref Tinel et al., 1987; cited from earlier work
[6] = target: benzo(a)pyrene hydroxylase; design: method as in Tinel et al., 1987; conditions: HLMs; ref Tinel et al., 1987; cited from earlier work
[7] = Caffeine pharmacokinetics in saliva/plasma of untreated human volunteers (baseline); format: in vivo; conditions: caffeine 200 mg single oral dose
Experimental: Male human volunteers, between 21 and 30 years old and living in the Metro Vancouver area, were recruited for the study. The volunteers had to meet specific eligibility criteria: not smoking, use medication, consume alcohol heavily or have any health concerns which may affect the test results. […] The participants were also asked to refrain from consuming solid foods 3.0 h prior to the study. The study protocol was approved by the Simon Fraser University Office of Research Ethics with approval number 2012s0565 and registration number ISRCTN83028296.
This study adopted a non-randomized, single-blinded, and crossover design in which each subject acted as their own control ([Sheriffdeen et al., 2019]). […] In the ARFP extract treatment study, the same group of volunteers was used after a 4 days washout period. […] Saliva samples were collected at 0.5, 1.0, 1.5, 2.0, 2.5, 3.0, 4.0, 6.0, 8.0, 12.0, 24.0, 36.0, and 48.0 h post-dosing. All saliva samples were stored in the dark at freezing temperature until they were ready for extraction and HPLC-UV analysis.
The saliva samples were thawed at room temperature, mixed by vortexing for 30 s, and centrifuged for 10 min at 4,000×g. Exactly 200.0 µl aliquot of the saliva sample was removed and spiked with 100.0 µl of the internal standard (ISTD) benzotriazole (50.0 μg/ml). […]
The following pharmacokinetic parameters were determined: the Tmax (time to reach peak plasma level) and Cmax (concentration of peak plasma level) were determined by visual inspection. The AUC0-inf (area under plasma concentration-time curve from zero to infinity) was determined by non-compartmental analysis using the PK Solver software ([Zhang et al., 2010]). The AUC0-inf was determined using the log-linear trapezoidal rule from dosing time to last time point and extrapolated to infinity by dividing the last concentration with the elimination rate constant. The AUC ratio was calculated by dividing the AUC0-inf after ARFP extract pretreatment with the AUC0-inf before ARFP extract pretreatment.

[8] = cited from earlier work; remark: listed apart in the source
CYP1A2 [9] = target: T1, CYP1A2
Experimental: as §1, §2

[10] = rats, cited from earlier work
human CYP 1A2 isozyme = target: human CYP 1A2 isozyme; design: method as in Kang et al., 2011; conditions: mechanism-based inhibition; ref Kang et al., 2011; cited from earlier work

Compound: COc1c2ccoc2cc2oc(=O)ccc12 [5-MOP, 5-methoxypsoralen]
- Tmax ([1]; PUVA patients, ref Shephard et al., 1999): 2.8 ± 0.8 h
- Tmax ([1]; healthy humans, ref Stolk et al., 1981): 3.0 ± 0.6 h
- IC50 [2]: 2300 nM
- IC50 (CYP1A2 [3]): 130 nM
- KI (CYP1A2 [4]): 3730 ± 3660 nM
- kinact (CYP1A2 [4]; human, human liver microsomes, probe caffeine (6.4 µM non-labeled + 0.2 µCi 14C-caffeine)): 0.00583 s⁻¹

Compound: COc1c2occc2cc2ccc(=O)oc12 [8-MOP, 8-methoxypsoralen]
- IC50 [5]: ~25000 nM
- IC50 [6]: ~25000 nM
- KI (CYP1A2 [4]): 780 ± 320 nM

Compound: Cn1c(=O)c2c(ncn2C)n(C)c1=O [Caffeine, caffeine]
- Tmax UT ([7]; plasma (from saliva), untreated volunteers of the study group of that line): 0.8 h
- Cmax ([7]; male, human, plasma (calculated from saliva concentrations), po, 200 mg, untreated volunteers): 5100 ng/mL
- AUC(0-inf) ([7]; male, human, plasma (calculated from saliva concentrations), po, 200 mg, untreated volunteers, read-out: AUC0-inf UT): 33500 to 55800 ng·h/mL
- AUC ([8]; 12 human volunteers, 167 mg orally, ref Fuhr et al., 1993): 28500 ± 14900 ng·h/mL
- AUC ([8]; healthy volunteers, 5 mg/kg dose, mean ± SD, ref Kamimori et al., 1995): 60800 ± 23700 ng·h/mL
- Time to reach the peak concentration in the blood ([8]; single oral dose, ref Tang-Liu et al., 1983): ≤ 1.0 h

Compound: COc1c2ccoc2c(OC)c2oc(=O)ccc12 [ISOP, isopimpinellin]
- KI (CYP1A2 [9]): 4480 ± 560 nM
- Tmax ([10]; oral dose of C. monnieri herbal product, ref Li et al., 2014): 1.1 ± 0.3 h
- Tmax ([10]; oral dose of Toddalia asiatica herbal product, ref Liu et al., 2012): 1.3 ± 0.3 h
- IC50 [2]: 1900 nM
- KI (human CYP 1A2 isozyme): 1200 nM
- kinact (human CYP 1A2 isozyme): 0.34 min⁻¹
- IC50 (CYP1A2 [3]): 290 nM
